This is an account of results in patent publication US9174946B2, “Selective FAK inhibitors” (priority 2011, dated 2015).

The target in one experiment is T1, Y397-FAK phosphorylation (Homo sapiens, UniProt Q05397).
T1 construct: endogenous in cells; host or cells: MDA-231-LNA cells
The format is cell-based.

The test system of experiment [1] is HeyA8, SKOV3ip1, and HeyA8-MDR models. Particulars: concomitant administration of TAE226 and docetaxel, all three models; cited from earlier work.

Like-named read-outs stand apart in the source and are kept apart here.

T1 sequence (Q05397 whole entry): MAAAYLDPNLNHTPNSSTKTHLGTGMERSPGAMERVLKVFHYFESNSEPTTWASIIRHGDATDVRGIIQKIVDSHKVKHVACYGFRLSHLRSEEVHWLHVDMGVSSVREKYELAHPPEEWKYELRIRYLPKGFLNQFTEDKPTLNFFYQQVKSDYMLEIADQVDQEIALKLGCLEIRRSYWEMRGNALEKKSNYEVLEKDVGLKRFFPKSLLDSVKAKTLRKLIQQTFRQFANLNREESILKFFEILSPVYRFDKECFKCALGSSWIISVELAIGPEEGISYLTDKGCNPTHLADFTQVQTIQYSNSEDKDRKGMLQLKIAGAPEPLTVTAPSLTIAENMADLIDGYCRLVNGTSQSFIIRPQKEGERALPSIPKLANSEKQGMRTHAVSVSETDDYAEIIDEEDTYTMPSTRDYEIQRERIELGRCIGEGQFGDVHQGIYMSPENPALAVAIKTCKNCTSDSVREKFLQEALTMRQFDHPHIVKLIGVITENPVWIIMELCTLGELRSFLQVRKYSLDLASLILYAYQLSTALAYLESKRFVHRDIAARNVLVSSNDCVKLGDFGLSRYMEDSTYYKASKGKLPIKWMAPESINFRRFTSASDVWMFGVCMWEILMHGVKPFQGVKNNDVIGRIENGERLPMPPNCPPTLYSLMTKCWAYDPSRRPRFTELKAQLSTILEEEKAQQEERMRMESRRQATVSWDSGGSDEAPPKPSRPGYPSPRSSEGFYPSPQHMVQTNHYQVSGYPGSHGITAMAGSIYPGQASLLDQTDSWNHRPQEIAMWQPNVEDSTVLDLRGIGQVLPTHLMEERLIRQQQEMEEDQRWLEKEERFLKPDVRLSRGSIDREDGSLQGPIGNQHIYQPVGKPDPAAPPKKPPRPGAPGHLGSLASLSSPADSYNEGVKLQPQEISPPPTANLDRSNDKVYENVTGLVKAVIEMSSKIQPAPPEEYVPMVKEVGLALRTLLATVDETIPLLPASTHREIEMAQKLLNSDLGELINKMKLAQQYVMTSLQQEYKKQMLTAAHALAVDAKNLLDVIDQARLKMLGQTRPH
Protocol for Y397-FAK phosphorylation: The ability of compounds of the invention to inhibit FAK within cells can be assessed with an ELISA-type assay performed using a Meso Scale Discovery SECTOR Imager 6000 instrument. In this assay the ability of compounds of the invention to inhibit phosphorylation of Y397-FAK is determined.
P397Y-FAK Inhibition MSD Platform Cellular Biomarker Assay
96-well plates (cat #MA6000, Meso Scale Discovery) are coated with 30 μL/well of mouse monoclonal FAK antibody [63D5] (cat #ab72140, Abcam) pre-diluted in PBS to a concentration of 1 mg/L. The plates are sealed with adhesive film and incubated for 16 hours at 4° C. The antibody is then flicked out of the plates and 150 μL of 3% [w/v] Blocker A (cat #R93AA-1, Mesa Scale Discovery) is added. The plates are resealed with adhesive film and incubated at room temperature on a shaker set at medium speed for 2 hours. The plates are then washed three times with a solution containing 50 mM Tris-HCl pH 7.5, 0.15M NaCl and 0.02% Tween-20, before cell lysate addition described below.
Cells are split 1:2 into T150 cell culture flasks 2 days prior to compound treatment. […] The media/compounds are then flicked off and 55 μL/well of ice-cold complete lysis buffer is added. […] Plates are incubated on ice for 30 minutes, with 30 seconds high speed plate shaking every 5 minutes. 40 μL/well of cell lysate is transferred to the coated, blocked and washed 96-well microtitre plates described above. The 96-well plates are sealed with adhesive film and incubated for 16 hours at 4° C. The plates are then washed three times with a solution containing 50 mM Tris-HCl pH 7.5, 0.15M NaCl and 0.02% Tween-20 and tapped dry.
Plates are then washed three times with a solution containing 50 mM Tris-HCl pH 7.5, 0.15M NaCl and 0.02% Tween-20 and tapped dry.

As to `NC(=O)Cc1ccccc1CCc1nc(Nc2ccc(C3CCNCC3)cc2OC(F)(F)F)ncc1C(F)(F)F` [Compound 10, 2-(2-(2-(2-((4-(Piperidin-4-yl)-2-(trifluoromethoxy)phenyl)amino)-5-(trifluoromethyl)pyrimidin-4yl)ethyl)phenyl)acetamide], the “% response of control at 2 μM” value on Y397-FAK phosphorylation is given as 116%.

With `COc1cc(N2CCNCC2)ccc1Nc1ncc(C(F)(F)F)c(CCc2ccccc2CC(N)=O)n1` [Compound 1, 2-(2-(2-(2-((2-Methoxy-4-(piperazin-1-yl)phenyl)amino)-5-(trifluoromethyl)pyrimidin-4-yl)ethyl)phenyl)acetamide], the “% response of control at 2 μM” value at Y397-FAK phosphorylation (MDA-231-LNA cells, relative to control compound at 2 μM) was determined as 122%.

For `COc1cc(C2CCN(C)CC2)ccc1Nc1ncc(C(F)(F)F)c(CCc2ccccc2CC(N)=O)n1` [Compound 3, 2-(2-(2-(2-((2-Methoxy-4-(1-methylpiperidin-4-yl)phenyl)amino)-5-(trifluoromethyl)pyrimidin-4-yl)ethyl)phenyl)acetamide], the “% response of control at 2 μM” value at Y397-FAK phosphorylation is 102%.

On to `CN1CCC(c2ccc(Nc3ncc(C(F)(F)F)c(CCc4ccccc4CC(N)=O)n3)c(OC(F)(F)F)c2)CC1` [Compound 11, 2-(2-(2-(2-((4-(1-Methylpiperidin-4-yl)-2-(trifluoromethoxy)phenyl)amino)-5-(trifluoromethyl)pyrimidin-4-yl)ethyl)phenyl)acetamide], for which, on Y397-FAK phosphorylation, the “% response of control at 2 μM” value stood at 117%.

In the case of `COc1cc(C2CCN(C)CC2)ccc1Nc1ncc(C(F)(F)F)c(CCc2cccc(C(N)=O)c2)n1` [Compound 6, 3-(2-(2-((2-Methoxy-4-(1-methylpiperidin-4-yl)phenyl)amino)-5-(trifluoromethyl)pyrimidin-4-yl)ethyl)benzamide], the “% response of control at 2 μM” value on Y397-FAK phosphorylation is 80%.

Turning to `CN1CCC(c2ccc(Nc3ncc(C(F)(F)F)c(CCc4ccccc4CC(N)=O)n3)c(F)c2)CC1` [Compound 13, 2-(2-(2-(2-((2-Fluoro-4-(1-methylpiperidin-4-yl)phenyl)amino)-5-(trifluoromethyl)pyrimidin-4-yl)ethyl)phenyl)acetamide], the “% response of control at 2 μM” value on Y397-FAK phosphorylation was determined as 90%.

`CNC(=O)c1ccccc1Nc1nc(Nc2ccc(N3CCOCC3)cc2OC)ncc1Cl` [TAE226]: in experiment [1], the “reduction of tumour burden” value is 85-97%.

Regarding `CCN1CCC(c2ccc(Nc3ncc(C(F)(F)F)c(CCc4ccccc4CC(N)=O)n3)c(OC)c2)CC1` [Compound 4, 2-(2-(2-(2-((4-(1-Ethylpiperidin-4-yl)-2-methoxyphenyl)amino)-5-(trifluoromethyl)pyrimidin-4-yl)ethyl)phenyl)acetamide], the “% response of control at 2 μM” value at Y397-FAK phosphorylation was 108%.

Take `COc1cc(C2CCNCC2)ccc1Nc1ncc(C(F)(F)F)c(CCc2ccccc2CC(N)=O)n1` [Compound 2, 2-(2-(2-(2-((2-Methoxy-4-(piperidin-4-yl)phenyl)amino)-5-(trifluoromethyl)pyrimidin-4-yl)ethyl)phenyl)acetamide]: at Y397-FAK phosphorylation, the “% response of control at 2 μM” value is listed as 91%.
